Laboratory results published in ChEMBL document CHEMBL5608209, “Biological and structural investigation of tetrahydro-β-carboline-based selective HDAC6 inhibitors with improved stability” (Eur J Med Chem, 2024).
Each block holds one molecule with its values, some of them ahead of it. Active and inactive are the calls of the source. The calls are words filed in the database; no cut-off is given here.

How the values were obtained:
in vitro [1] = conditions: human, plasma diluted in PBS (1:2 v/v)
Description: Stability in human plasma in PBS (1:2 v/v) assessed as intact compound at 37 degC measured after 24 hrs

in vitro [2] = conditions: human, plasma diluted in PBS (1:2 v/v); remark: listed apart in the source
Description: Stability in human plasma in PBS (1:2 v/v) assessed as intact compound at 37 degC measured after 72 hrs

Histone deacetylase 3 = Histone deacetylase 3 (Homo sapiens, UniProt O15379)
Description: Inhibition of purified recombinant human HDAC3 assessed as inhibition constant using fluorogenic substrate ZMAL (Z-Lys(Ac)-AMC as substrate measured after 90 mins by fluorescence microplate reader

[3] = molecular target: T1, Protein deacetylase HDAC6 (Homo sapiens, UniProt Q9UBN7); test: Inhibition of purified recombinant human HDAC6 assessed as inhibition constant using residues 379-382 (RHKK(Ac)AMC) fluorogenic substrate p53 fluorogenic peptide as substrate measured after 90 mins by fluorescence assay
T1 sequence (Q9UBN7 whole entry): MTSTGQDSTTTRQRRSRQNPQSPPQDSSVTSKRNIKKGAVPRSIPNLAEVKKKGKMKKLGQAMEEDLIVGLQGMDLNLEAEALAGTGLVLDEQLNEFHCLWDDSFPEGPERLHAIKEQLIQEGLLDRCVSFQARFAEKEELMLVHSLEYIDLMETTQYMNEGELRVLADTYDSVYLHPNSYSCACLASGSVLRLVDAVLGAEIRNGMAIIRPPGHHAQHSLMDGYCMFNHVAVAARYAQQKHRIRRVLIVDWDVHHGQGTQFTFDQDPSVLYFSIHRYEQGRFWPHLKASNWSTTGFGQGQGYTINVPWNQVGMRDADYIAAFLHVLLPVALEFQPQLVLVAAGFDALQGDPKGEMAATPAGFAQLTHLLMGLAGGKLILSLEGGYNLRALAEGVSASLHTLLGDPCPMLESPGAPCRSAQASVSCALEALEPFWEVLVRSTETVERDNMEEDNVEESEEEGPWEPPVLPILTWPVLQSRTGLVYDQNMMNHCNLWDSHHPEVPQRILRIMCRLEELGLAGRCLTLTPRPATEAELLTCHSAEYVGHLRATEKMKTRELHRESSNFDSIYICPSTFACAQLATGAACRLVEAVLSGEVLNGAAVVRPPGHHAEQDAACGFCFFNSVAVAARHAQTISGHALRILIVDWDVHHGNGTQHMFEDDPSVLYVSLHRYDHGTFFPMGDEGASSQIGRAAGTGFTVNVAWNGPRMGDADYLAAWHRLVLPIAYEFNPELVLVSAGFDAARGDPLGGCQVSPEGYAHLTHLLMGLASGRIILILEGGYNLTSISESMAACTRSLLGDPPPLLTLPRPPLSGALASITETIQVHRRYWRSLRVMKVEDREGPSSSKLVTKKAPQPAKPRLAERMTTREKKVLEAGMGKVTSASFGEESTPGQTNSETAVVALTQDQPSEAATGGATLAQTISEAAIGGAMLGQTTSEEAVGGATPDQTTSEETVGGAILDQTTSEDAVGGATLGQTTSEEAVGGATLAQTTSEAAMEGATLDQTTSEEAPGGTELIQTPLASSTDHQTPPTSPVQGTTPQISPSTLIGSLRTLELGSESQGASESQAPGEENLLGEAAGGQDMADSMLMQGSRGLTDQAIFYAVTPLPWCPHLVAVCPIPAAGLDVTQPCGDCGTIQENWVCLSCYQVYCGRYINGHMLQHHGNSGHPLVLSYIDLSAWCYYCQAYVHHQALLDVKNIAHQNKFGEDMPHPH

[4] = molecular target: T2, Polyamine deacetylase HDAC10 (Homo sapiens, UniProt Q969S8); test: Inhibition of purified recombinant human HDAC10 assessed as inhibition constant using residues 379-382 (RHKK(Ac)AMC) fluorogenic substrate p53 fluorogenic peptide as substrate measured after 90 mins by fluorescence assay
T2 sequence (Q969S8 whole entry): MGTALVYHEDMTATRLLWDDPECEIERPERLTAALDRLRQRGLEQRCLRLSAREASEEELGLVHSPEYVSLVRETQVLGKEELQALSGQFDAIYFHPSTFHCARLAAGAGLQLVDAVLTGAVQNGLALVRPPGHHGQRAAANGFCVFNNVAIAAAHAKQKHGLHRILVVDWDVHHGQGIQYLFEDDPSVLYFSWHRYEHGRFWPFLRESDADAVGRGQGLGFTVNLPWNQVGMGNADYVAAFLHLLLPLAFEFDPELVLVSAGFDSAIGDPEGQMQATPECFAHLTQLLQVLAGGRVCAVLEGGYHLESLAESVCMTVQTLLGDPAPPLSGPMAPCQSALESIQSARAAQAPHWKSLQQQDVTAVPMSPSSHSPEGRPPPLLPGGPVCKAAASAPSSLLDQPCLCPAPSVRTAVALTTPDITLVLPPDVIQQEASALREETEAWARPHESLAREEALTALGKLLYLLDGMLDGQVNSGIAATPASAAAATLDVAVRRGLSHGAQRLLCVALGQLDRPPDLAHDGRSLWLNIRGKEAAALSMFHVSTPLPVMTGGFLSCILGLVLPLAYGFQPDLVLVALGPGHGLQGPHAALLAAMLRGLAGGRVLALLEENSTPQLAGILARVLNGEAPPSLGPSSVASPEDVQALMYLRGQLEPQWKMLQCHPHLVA

MV4-11 = test: Antiproliferative activity against human MV4-11 cells assessed as cell viability by measuring amount of ATP after 72 hrs incubation by CellTiteer-Glo Cell viability assay; conditions: MV4-11, 72 h
Histone deacetylase 8 = molecular target: T3, Histone deacetylase 8 (Homo sapiens, UniProt Q9BY41); test: Inhibition of purified recombinant human HDAC8 assessed as inhibition constant using residues 379-382 (RHKK(Ac)AMC) fluorogenic substrate p53 fluorogenic peptide as substrate measured after 90 mins by fluorescence assay
T3 sequence (Q9BY41 whole entry): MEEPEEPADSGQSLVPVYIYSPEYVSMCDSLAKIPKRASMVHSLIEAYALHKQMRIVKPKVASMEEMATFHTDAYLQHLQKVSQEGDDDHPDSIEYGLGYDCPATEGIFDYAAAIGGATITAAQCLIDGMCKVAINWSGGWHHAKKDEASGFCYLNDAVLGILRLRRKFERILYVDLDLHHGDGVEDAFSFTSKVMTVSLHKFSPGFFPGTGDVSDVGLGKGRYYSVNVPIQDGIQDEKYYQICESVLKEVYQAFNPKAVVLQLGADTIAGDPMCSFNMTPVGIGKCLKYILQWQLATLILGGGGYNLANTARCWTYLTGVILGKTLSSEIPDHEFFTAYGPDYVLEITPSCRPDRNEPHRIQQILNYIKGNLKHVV

[5] = molecular target: T4, Protein deacetylase HDAC6 (Homo sapiens) (UniProt Q9UBN7); conditions: MV4-11, dose 5.0 nM, time 24.0 hrs
T4 sequence (whole entry): T1 sequence (Q9UBN7 whole entry)

[6] = molecular target: T4, Protein deacetylase HDAC6 (Homo sapiens); conditions: MV4-11, dose 50.0 nM, time 24.0 hrs
[7] = molecular target: T4, Protein deacetylase HDAC6 (Homo sapiens); conditions: MV4-11, dose 500.0 nM, time 24.0 hrs

Histone deacetylase 3, sequence (O15379 whole entry, the tested form may be a part): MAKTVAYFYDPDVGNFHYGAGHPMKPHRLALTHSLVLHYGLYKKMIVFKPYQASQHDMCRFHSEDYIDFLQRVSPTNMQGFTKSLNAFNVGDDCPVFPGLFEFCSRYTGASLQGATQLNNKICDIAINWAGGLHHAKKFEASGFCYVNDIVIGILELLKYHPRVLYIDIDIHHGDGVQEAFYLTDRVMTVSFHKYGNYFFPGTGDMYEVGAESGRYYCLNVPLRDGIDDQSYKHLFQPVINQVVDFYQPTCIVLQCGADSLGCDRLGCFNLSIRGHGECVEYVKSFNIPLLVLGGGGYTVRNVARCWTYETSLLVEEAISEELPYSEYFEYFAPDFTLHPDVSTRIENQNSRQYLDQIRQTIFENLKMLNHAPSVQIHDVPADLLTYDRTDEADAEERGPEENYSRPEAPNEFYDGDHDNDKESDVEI

remaining at 24 h (in vitro [1]): 91.4% | remaining at 72 h (in vitro [2]): 56.3%
SMILES: CN1C(=O)N2Cc3c(c4cc(OCCN5CCOCC5)ccc4n3Cc3ccc(C(=O)O)cc3)[C@](C)(C2)C1=O

Ki (Histone deacetylase 3): 384 nM | Ki [3]: 0.44 nM
SMILES: CN1C(=O)N2Cc3c(c4cc(OCCN5CCOCC5)ccc4n3Cc3ccc(C(=O)NO)cc3)C(c3ccco3)(C2)C1=O (racemic)

Ki [4]: 1.49 nM
SMILES: Cn1cc(CNCC2CCN(c3ncc(C(=O)NO)cn3)CC2)c2ccccc21 [QUISINOSTAT]

Ki (Histone deacetylase 3): 118 nM | Ki [3]: 0.31 nM
SMILES: CN1C(=O)N2Cc3c(c4cc(O)ccc4n3Cc3ccc(C(=O)NO)cc3)C(c3cccs3)(C2)C1=O (racemic)

EC50 (MV4-11): 0.71 µM
SMILES: O=C(CCCCCCNC(=O)c1cnc(N(c2ccccc2)c2ccccc2)nc1)NO [RICOLINOSTAT]

EC50 (MV4-11): 15.3 µM
SMILES: CC(/C=C/C(=O)NO)=C\[C@@H](C)C(=O)c1ccc(N(C)C)cc1 [TRICHOSTATIN]

Ki (Histone deacetylase 3): 675 nM | Ki [3]: 1.25 nM | Ki (Histone deacetylase 8): 1090 nM
SMILES: CN1C(=O)N2Cc3c(c4cc(OCCN5CCOCC5)ccc4n3Cc3ccc(C(=O)NO)cc3)C(C3CCCCC3)(C2)C1=O (racemic)

inhibition [5]: inactive | inhibition [6]: inactive | inhibition [7]: inactive
SMILES: CN1C(=O)C2CN(Cc3c2c2ccccc2n3Cc2ccc(C(=O)NO)cc2)C1=O (stereo not given)
